Results taken from PubChem BioAssay (NCI).
“And” between values parts separate entries of the source, which are not always exact repeats. Identical values can stand only once.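 Dose response: 5 concentrations. Exposure: 48 h. Format: 96-well plates. Endpoint: linear interpolation; highest concentration if not reached. GI50: concentration for 50% inhibition of growth. TGI denotes the concentration required for complete inhibition of growth.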

Experiments:
Experiment in all cases: inhibition of tumour cell growth, NCI panel, 48 h
MDA-MB-231 breast = test system: MDA-MB-231 breast
HOP-62 NSCLC = test system: HOP-62 NSCLC
MOLT-4 leukemia = test system: MOLT-4 leukemia
UO-31 renal = test system: UO-31 renal
OVCAR-3 ovarian = test system: OVCAR-3 ovarian
U251 CNS = test system: U251 CNS
HOP-92 NSCLC = test system: HOP-92 NSCLC
EKVX NSCLC = test system: EKVX NSCLC

Compound	GI50 (MDA-MB-231 breast)	TGI (MDA-MB-231 breast)	GI50 (HOP-62 NSCLC) [µM]	TGI (HOP-62 NSCLC) [µM]	GI50 (MOLT-4 leukemia) [µM]	TGI (MOLT-4 leukemia) [µM]	GI50 (UO-31 renal)	TGI (UO-31 renal)	GI50 (OVCAR-3 ovarian)	TGI (OVCAR-3 ovarian)	GI50 (U251 CNS)	TGI (U251 CNS)	GI50 (HOP-92 NSCLC)	TGI (HOP-92 NSCLC)	GI50 (EKVX NSCLC)	TGI (EKVX NSCLC)
CN(C)CCNC(=O)c1ccc(Nc2nc3ccccc3c3occc23)cc1	1.54 µM	4.14 µM	3.35	8.16	2.75	5.17	3.82 µM	16.2 µM	2.4 µM	7.87 µM	2.45 µM	6.35 µM	1.8 µM	9.84 µM	11.7 µM	28.7 µM
COc1cc2oc(=O)cc(C)c2cc1[N+](=O)[O-]	–	71.6 µM	–	> 100	–	60.9	–	> 87.6 µM	–	64.1 µM	–	> 100 µM	–	57.1 µM	–	> 100 µM
O=C(Nc1ccc(Cl)c([N+](=O)[O-])c1)Nc1nc2ccccc2s1	3.5 µM	12.1 µM	3.21	12	3.76	17.1	2.91 µM	–	3.27 µM	10.6 µM	3.36 µM	13.4 µM	2.34 µM	7.06 µM	2.59 µM	10.9 µM
CN1CCN(Cc2ccc(-c3cc4ncnc(Nc5ccc(OCc6cccc(F)c6)c(Cl)c5)c4s3)o2)CC1	4.56 µM	9.01 µM	4.64	9.12	4.47	9.39	3.3 µM	7.37 µM	4.23 µM	8.01 µM	3.34 µM	7.12 µM	2.76 µM	6.51 µM	2.95 µM	8.78 µM
CC(C)C[C@H](NC(=O)[C@H](Cc1ccccc1)n1ccc(N2CCCCC2)cc1=O)B(O)O	1.2 µM	12.2 µM	2.63	9.29	0.308	> 100	0.981 µM	15.4 µM	0.327 µM	1.21 µM	1.18 µM	> 100 µM	1.34 µM	5.61 µM	–	–
O=C(/C=C/c1ccco1)c1ccc(Nc2nc(Nc3ccc(F)cc3)nc(Nc3ccc(Cl)cc3)n2)cc1	16.2 µM	61.9 µM	> 50	> 87.1	> 19.8	> 49.7	> 60.8 µM	> 100 µM	18 µM	56.8 µM	19.5 µM	53.8 µM	2.69 µM	> 45.4 µM	> 32.1 µM	> 60.2 µM
COc1ccc(C(=O)Cn2c(C(=O)c3ccc(Cl)cc3)nc3ccccc32)cc1	24.8 µM	> 100 µM	–	> 34.6	3.83	> 100	> 51.2 µM	> 100 µM	> 20.3 µM	> 77.6 µM	19.4 µM	> 100 µM	> 100 µM	> 100 µM	> 42.9 µM	> 100 µM
COc1ccc(-c2ccc(C3CC(c4ccc(O)cc4)=NN3)o2)c([N+](=O)[O-])c1 (centres undefined)	–	–	34	> 100	5.14	29.9	50.3 µM	> 100 µM	24.1 µM	> 100 µM	19 µM	> 100 µM	–	–	43 µM	> 100 µM
Oc1ccc(C(c2ccccc2)(c2ccccc2)c2ccccc2)cc1	16.7 µM	34.2 µM	17.6	31.5	17.8	36.6	11.8 µM	26.9 µM	16.6 µM	37.6 µM	28.9 µM	> 100 µM	17.8 µM	34.1 µM	15.4 µM	29.3 µM
CCNC(=O)C[C@@H]1N=C(c2ccc(Cl)cc2)c2cc(OC)ccc2-n2c(C)nnc21	2.76 µM	> 100 µM	2.1	> 100	> 44.2	> 100	0.659 µM	> 100 µM	6.29 µM	> 100 µM	> 67.8 µM	> 100 µM	0.548 µM	> 100 µM	> 100 µM	> 100 µM
Cn1ccnc1C(=O)/C=C/c1ccc(CC(=O)Nc2ccc(Cl)cc2)cc1	5.23 µM	> 25 µM	2.16	> 25	1.74	> 25	2.27 µM	> 25 µM	1.03 µM	> 25 µM	1.1 µM	> 25 µM	> 25 µM	> 25 µM	15.6 µM	> 25 µM
S=CN1CCCCC1	–	> 100 µM	–	> 100	–	> 100	–	> 100 µM	–	> 100 µM	–	> 100 µM	–	–	–	> 100 µM
COc1cccc(-c2nn(-c3ccccc3)cc2-c2ccnc(NCCNS(=O)(=O)c3ccc(Cl)cc3)c2)c1	3.55 µM	> 100 µM	13.5	> 100	2.56	9	2.9 µM	> 100 µM	4.32 µM	> 100 µM	5.89 µM	> 100 µM	2.46 µM	9.48 µM	3.84 µM	> 100 µM
CN(N=O)C(=O)Nc1c[nH]c(=O)[nH]c1=O	–	> 100 µM	–	> 100	–	> 100	–	> 100 µM	–	> 100 µM	–	> 100 µM	–	> 100 µM	–	> 100 µM
Cn1c(C(N)=O)cc2c1-c1nc(Nc3ccccc3)ncc1CCC2	5.59 µM	> 100 µM	2.96	52.6	4.21	50.4	1.92 µM	14.3 µM	10.1 µM	57.1 µM	3.55 µM	> 100 µM	1.47 µM	8.32 µM	–	–
O=C(Nc1ccc(-c2nc3cc4ccccc4cc3[nH]2)cc1)c1cccc(Br)c1	3.11 µM	19.3 µM	7.28	20.4	27.6	> 100	17.6 µM	36.1 µM	3.64 µM	10.3 µM	5.23 µM	19 µM	4 µM	17.8 µM	–	–
C=C1C(=O)O[C@@H]2C[C@@H]1CC[C@]1(C)O[C@H]1CC[C@@]1(C)O[C@@H]1CC[C@@]2(C)O	25.1 µM	68.4 µM	75.8	> 100	13.5	36.7	13.7 µM	45.1 µM	16.2 µM	51.9 µM	42.8 µM	> 100 µM	–	–	59.8 µM	> 100 µM

Compound	GI50 (MDA-MB-231 breast)	TGI (MDA-MB-231 breast)	GI50 (HOP-62 NSCLC) [µM]	TGI (HOP-62 NSCLC) [µM]	GI50 (MOLT-4 leukemia) [µM]	TGI (MOLT-4 leukemia) [µM]	GI50 (UO-31 renal)	TGI (UO-31 renal)	GI50 (OVCAR-3 ovarian)	TGI (OVCAR-3 ovarian)	GI50 (U251 CNS)	TGI (U251 CNS)	GI50 (HOP-92 NSCLC)	TGI (HOP-92 NSCLC)	GI50 (EKVX NSCLC)	TGI (EKVX NSCLC)
O=C1/C(=C/c2cccc([N+](=O)[O-])c2)COc2ccc(O)c(O)c21	1.47 µM	2.98 µM	1.93	4.62	2.12	12.1	1.07 µM	2.29 µM	1.2 µM	2.71 µM	1.17 µM	2.64 µM	2.24 µM	8.22 µM	1.9 µM	4.1 µM
CCn1c(=O)c(-c2ccn[nH]2)cc2c(C)nc(N)nc21	1.45 µM	12 µM	0.575	5.91	0.846	51	0.291 µM	3.72 µM	1.15 µM	> 100 µM	3.75 µM	> 100 µM	0.213 µM	1.56 µM	0.691 µM	11.1 µM
CCC1=C(C)/C(=C/c2[nH]c(C)c(C(=O)CCCCC(=O)OC)c2C)N=C1c1ccc[nH]1	4.6 µM	46.4 µM	13.9	28.5	0.995	6.92	8.78 µM	25.5 µM	3.64 µM	18.5 µM	12.6 µM	33.1 µM	3.95 µM	15.4 µM	12.2 µM	32 µM
CC(C)(C)[Si](C)(C)OCC1CCC(n2cnc3c(NC(=O)c4ccccc4)ncnc32)O1 (centres undefined)	–	37.1 µM	–	38	–	39.6	–	3.16 µM	–	28 µM	–	32.9 µM	–	31.6 µM	–	32.6 µM
COc1cc(/C=C(/C)[N+](=O)[O-])ccc1O	2.14 µM and 2.64 µM	5.5 µM and 7.44 µM	2.46	6.01	3.3	9.14	1.53 µM and 1.41 µM	3.19 µM and 3.39 µM	1.96 µM and 1.61 µM	3.46 µM and 3.17 µM	1.77 µM and 1.87 µM	3.79 µM and 3.7 µM	1.62 µM and 1.84 µM	4.4 µM and 4.28 µM	6.55 µM and 2.84 µM	18.7 µM and 14.6 µM
Oc1ccc2ccccc2c1C=NCCCN=Cc1c(O)ccc2ccccc12	11.6 µM	30.2 µM	22.6	47.4	10.3	56.9	8.4 µM	52.4 µM	3.31 µM	14.8 µM	3.8 µM	15.2 µM	8.93 µM	59.9 µM	17.3 µM	> 100 µM
CN(C)/[N+]([O-])=N/Oc1cc(Nc2cccc(C(=O)O)c2)c([N+](=O)[O-])cc1[N+](=O)[O-]	> 100 µM	> 100 µM	32.2	> 100	61.4	> 100	> 100 µM	> 100 µM	5.45 µM	22.7 µM	35.3 µM	> 100 µM	–	–	> 100 µM	> 100 µM
O=[N+]([O-])c1cnc(Sc2ccncn2)c([N+](=O)[O-])c1	14.8 µM	28.4 µM	14.6	28.1	3.24	33.1	1.55 µM	2.98 µM	1.76 µM	3.17 µM	29.4 µM	> 100 µM	2.51 µM	6.53 µM	–	–
Cc1ccc(C)c(NC(=O)C(=O)C(c2cnc3ccc([N+](=O)[O-])cc3n2)[N+](=O)[O-])c1 (centres undefined)	–	–	–	> 100	–	> 100	–	> 100 µM	–	> 100 µM	–	> 100 µM	–	> 100 µM	–	> 100 µM
CS(=O)(=O)c1ccc(Oc2cc(F)cc(C#N)c2)c2c1[C@H](O)[C@H](F)[C@@H]2F	> 100 µM	> 100 µM	> 100	> 100	> 100	> 100	> 100 µM	> 100 µM	> 100 µM	> 100 µM	> 100 µM	> 100 µM	–	–	> 100 µM	> 100 µM
CNc1ccccc1C(=O)N/N=C/C=C/c1ccccc1	4.11 µM	62 µM	6.9	> 61.6	1.86	> 100	8.08 µM	97.9 µM	0.563 µM	> 100 µM	1.19 µM	34.8 µM	4.13 µM	57.9 µM	–	–
O=[N+]([O-])c1ccc(N2CCN(Cc3ccccc3)CC2)c2c1no[n+]2[O-]	1.56 µM	3.08 µM	1.22	2.77	0.194	2.39	1.28 µM	2.59 µM	1.52 µM	2.96 µM	1.24 µM	2.65 µM	1.07 µM	2.36 µM	–	–
O=C1c2ccccc2-c2c1c1ccccc1c(=O)n2CCCNCCCn1c2c(c3ccccc3c1=O)C(=O)c1ccccc1-2	1.09 µM	4.25 µM	2.68	9.19	0.398	–	2.16 µM	> 50 µM	5.42 µM	16.5 µM	1.12 µM	2.67 µM	–	–	3.98 µM	14.8 µM
CC(O)C1OC(O)C2OC(C)(C)OC12 (centres undefined)	–	> 100 µM	–	> 100	–	> 100	–	> 100 µM	–	> 100 µM	–	> 100 µM	–	–	–	> 100 µM
O=C1OC(c2ccco2)=N/C1=C\c1ccc(Cl)c(Cl)c1	–	> 100 µM	–	94.6	–	> 100	–	–	–	> 100 µM	–	> 100 µM	–	> 100 µM	–	> 100 µM
CCCCCCCCCCCCN1C(C)=CS/C1=C\C=C\c1scc(C)[n+]1CCCCCCCCCCCC	–	–	3.51	28.7	2.55	> 100	2.4 µM	12.4 µM	1.24 µM	3.69 µM	–	–	0.864 µM	3.77 µM	–	–
Nc1ccccc1C#CC#Cc1ccccc1N	10.9 µM	24.5 µM	15.9	29.9	16.3	> 100	8 µM	> 100 µM	2.85 µM	36.3 µM	8.53 µM	21 µM	1.37 µM	96.7 µM	–	–
